Columns and labels:
Type in all cases: in vivo
[1] = system: barnyardgrass (Echinochloa crus-galli); experiment: Test A preemergence soil spray, visual injury rating 0-100; details: 10 days, 0 = no effect, 100 = complete control
How it was run: (§1)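 Directed preemergence spray onto seeded soil or postemergence spray onto 2-10 cm plants (loam plus sand); compound carried in surfactant-containing non-phytotoxic solvent. Injury rated by eye after 10 d greenhouse growth; 0 = no effect, 100 = complete control.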

soybean (Glycine max) [2] = experiment: as above; details: 10 days, 0 = no effect, 100 = complete control
How it was run: as §1

kochia (Bassia scoparia) [3] = experiment: as above; details: 10 days, 0 = no effect, 100 = complete control
How it was run: as §1

[4] = system: oat, wild (wild oat, Avena fatua); experiment: as above; details: 10 days, 0 = no effect, 100 = complete control
How it was run: as §1

[5] = system: ryegrass, Italian (italian ryegrass, Lolium multiflorum); experiment: as above; details: 10 days, 0 = no effect, 100 = complete control
How it was run: as §1

[6] = system: palmer (palmer amaranth, palmer pigweed, Amaranthus palmeri); experiment: as above; details: 10 days, 0 = no effect, 100 = complete control
How it was run: as §1

[7] = system: ragweed (common ragweed, Ambrosia artemisiifolia); experiment: as above; details: 10 days, 0 = no effect, 100 = complete control
How it was run: as §1

corn (Zea mays) [8] = experiment: as above; details: 10 days, 0 = no effect, 100 = complete control
How it was run: as §1

[9] = system: green foxtail (Setaria viridis); experiment: as above; details: 10 days, 0 = no effect, 100 = complete control
How it was run: as §1

[10] = system: wheat (Triticum aestivum); experiment: as above; details: 10 days, 0 = no effect, 100 = complete control
How it was run: as §1

[11] = system: blackgrass (Alopecurus myosuroides); experiment: as above; details: 10 days, 0 = no effect, 100 = complete control
How it was run: as §1

[12] = system: barnyardgrass (Echinochloa crus-galli); experiment: Test A postemergence application, visual injury rating 0-100; details: Postemergence, 10 days, 0 is no effect, 100 is complete control
How it was run: as §1

soybean (Glycine max) [13] = experiment: as above; details: Postemergence, 10 days, 0 is no effect, 100 is complete control
How it was run: as §1

kochia (Bassia scoparia) [14] = experiment: as above; details: Postemergence, 10 days, 0 is no effect, 100 is complete control
How it was run: as §1

[15] = system: oat, wild (wild oat, Avena fatua); experiment: as above; details: Postemergence, 10 days, 0 is no effect, 100 is complete control
How it was run: as §1

[16] = system: ryegrass, Italian (italian ryegrass, Lolium multiflorum); experiment: as above; details: Postemergence, 10 days, 0 is no effect, 100 is complete control
How it was run: as §1

[17] = system: palmer (palmer amaranth, palmer pigweed, Amaranthus palmeri); experiment: as above; details: Postemergence, 10 days, 0 is no effect, 100 is complete control
How it was run: as §1

[18] = system: ragweed (common ragweed, Ambrosia artemisiifolia); experiment: as above; details: Postemergence, 10 days, 0 is no effect, 100 is complete control
How it was run: as §1

[19] = system: galium (catchweed bedstraw, Galium aparine); experiment: as above; details: Postemergence, 10 days, 0 is no effect, 100 is complete control
How it was run: as §1

[20] = system: horseweed (Erigeron canadensis); experiment: as above; details: Postemergence, 10 days, 0 is no effect, 100 is complete control
How it was run: as §1

corn (Zea mays) [21] = experiment: as above; details: Postemergence, 10 days, 0 is no effect, 100 is complete control
How it was run: as §1

[22] = system: green foxtail (Setaria viridis); experiment: as above; details: Postemergence, 10 days, 0 is no effect, 100 is complete control
How it was run: as §1

[23] = system: wheat (Triticum aestivum); experiment: as above; details: Postemergence, 10 days, 0 is no effect, 100 is complete control
How it was run: as §1

[24] = system: blackgrass (Alopecurus myosuroides); experiment: as above; details: Postemergence, 10 days, 0 is no effect, 100 is complete control
How it was run: as §1

[25] = system: sedge, umbrella (small-flower umbrella sedge, Cyperus difformis); experiment: Test B flooded paddy test, visual plant response rating 0-100; details: 250 g ai/ha, Flood, applied to paddy water, evaluated after 13 days
How it was run: (§2)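 Plants were grown to the 2-leaf stage, then pots were flooded to 3 cm above the soil and test compounds were applied directly into the paddy water. Water depth was held there throughout; after 13 days in a greenhouse, injury was scored visually against untreated controls.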

rice (Oryza sativa) = experiment: as above; details: 250 g ai/ha, Flood, applied to paddy water, evaluated after 13 days
How it was run: as §2

[26] = system: barnyardgrass (Echinochloa crusgalli); experiment: as above; details: 250 g ai/ha, Flood, applied to paddy water, evaluated after 13 days
How it was run: as §2

[27] = system: ducksalad (Heteranthera limosa); experiment: as above; details: 250 g ai/ha, Flood, applied to paddy water, evaluated after 13 days
How it was run: as §2

CNC(=O)C1C=CC(NC(=O)C2(C)CN(c3cc(Cl)cc(Cl)c3)C(=O)O2)C1 (stereo not shown) [Compound 47]
Barnyardgrass plant response rating (0 to 100 scale) ([1]; 125 g ai/ha): 40 | Barnyardgrass plant response rating (0 to 100 scale) ([1]; 500 g ai/ha): 100 | Soybean plant response rating (0 to 100 scale) (soybean (Glycine max) [2]; 125 g ai/ha): 10 | Soybean plant response rating (0 to 100 scale) (soybean (Glycine max) [2]; 500 g ai/ha): 0 | Kochia plant response rating (0 to 100 scale) (kochia (Bassia scoparia) [3]; 125 g ai/ha): 90 | Kochia plant response rating (0 to 100 scale) (kochia (Bassia scoparia) [3]; 500 g ai/ha): 100 | Oat, Wild plant response rating (0 to 100 scale) ([4]; 125 g ai/ha): 90 | Oat, Wild plant response rating (0 to 100 scale) ([4]; 500 g ai/ha): 90 | Ryegrass, Italian plant response rating (0 to 100 scale) ([5]; 125 g ai/ha): 70 | Ryegrass, Italian plant response rating (0 to 100 scale) ([5]; 500 g ai/ha): 90 | Amaranth, Palmer plant response rating (0 to 100 scale) ([6]; 125 g ai/ha): 80 | Amaranth, Palmer plant response rating (0 to 100 scale) ([6]; 500 g ai/ha): 100 | Ragweed plant response rating (0 to 100 scale) ([7]; 125 g ai/ha): 40 | Ragweed plant response rating (0 to 100 scale) ([7]; 500 g ai/ha): 60 | Corn plant response rating (0 to 100 scale) (corn (Zea mays) [8]; 125 g ai/ha): 30 | Corn plant response rating (0 to 100 scale) (corn (Zea mays) [8]; 500 g ai/ha): 70 | Foxtail, Green plant response rating (0 to 100 scale) ([9]; 125 g ai/ha): 30 | Foxtail, Green plant response rating (0 to 100 scale) ([9]; 500 g ai/ha): 100 | Wheat plant response rating (0 to 100 scale) ([10]; 125 g ai/ha): 20 | Wheat plant response rating (0 to 100 scale) ([10]; 500 g ai/ha): 80 | Blackgrass plant response rating (0 to 100 scale) ([11]; 125 g ai/ha): 10 | Blackgrass plant response rating (0 to 100 scale) ([11]; 500 g ai/ha): 90 | Barnyardgrass plant response rating (0 to 100 scale) ([12]; 125 g ai/ha): 0 | Barnyardgrass plant response rating (0 to 100 scale) ([12]; 500 g ai/ha): 80 | Soybean plant response rating (0 to 100 scale) (soybean (Glycine max) [13]; 125 g ai/ha): 30 | Soybean plant response rating (0 to 100 scale) (soybean (Glycine max) [13]; 500 g ai/ha): 50 | Kochia plant response rating (0 to 100 scale) (kochia (Bassia scoparia) [14]; 125 g ai/ha): 70 | Kochia plant response rating (0 to 100 scale) (kochia (Bassia scoparia) [14]; 500 g ai/ha): 80 | Oat, Wild plant response rating (0 to 100 scale) ([15]; 125 g ai/ha): 20 | Oat, Wild plant response rating (0 to 100 scale) ([15]; 500 g ai/ha): 20 | Ryegrass, Italian plant response rating (0 to 100 scale) ([16]; 125 g ai/ha): 30 | Ryegrass, Italian plant response rating (0 to 100 scale) ([16]; 500 g ai/ha): 70 | Amaranth, Palmer / Pigweed, Palmer plant response rating (0 to 100 scale) ([17]; 125 g ai/ha): 80 | Amaranth, Palmer / Pigweed, Palmer plant response rating (0 to 100 scale) ([17]; 500 g ai/ha): 100 | Ragweed plant response rating (0 to 100 scale) ([18]; 125 g ai/ha): 40 | Ragweed plant response rating (0 to 100 scale) ([18]; 500 g ai/ha): 50 | Galium plant response rating (0 to 100 scale) ([19]; 125 g ai/ha): 80 | Galium plant response rating (0 to 100 scale) ([19]; 500 g ai/ha): 80 | Horseweed plant response rating (0 to 100 scale) ([20]; 125 g ai/ha): 50 | Horseweed plant response rating (0 to 100 scale) ([20]; 500 g ai/ha): 40 | Corn plant response rating (0 to 100 scale) (corn (Zea mays) [21]; 125 g ai/ha): 80 | Corn plant response rating (0 to 100 scale) (corn (Zea mays) [21]; 500 g ai/ha): 90 | Foxtail, Green plant response rating (0 to 100 scale) ([22]; 125 g ai/ha): 20 | Foxtail, Green plant response rating (0 to 100 scale) ([22]; 500 g ai/ha): 90 | Wheat plant response rating (0 to 100 scale) ([23]; 125 g ai/ha): 10 | Wheat plant response rating (0 to 100 scale) ([23]; 500 g ai/ha): 10 | Blackgrass plant response rating (0 to 100 scale) ([24]; 125 g ai/ha): 20 | Blackgrass plant response rating (0 to 100 scale) ([24]; 500 g ai/ha): 70 | Plant response rating, Sedge, Umbrella (0 to 100 scale, 0 is no effect and 100 is complete control) [25]: 0 | Plant response rating, Rice (0 to 100 scale, 0 is no effect and 100 is complete control) (rice (Oryza sativa)): 0 | Plant response rating, Barnyardgrass (0 to 100 scale, 0 is no effect and 100 is complete control) [26]: 0 | Plant response rating, Ducksalad (0 to 100 scale, 0 is no effect and 100 is complete control) [27]: 30

Reference: US20260285850A1, “SUBSTITUTED OXAZOLIDINONES AND IMIDAZOLINONES AS HERBICIDES” (FMC CORPORATION, priority 2023, published 2026)
